Reference: paper PMC10257182, “Discovery of senolytics using machine learning” (Nature Communications, 2023)
Counter-ions that a name gives are not always drawn. Like-named read-outs stand apart in the source and are kept apart here.

Test system: non-senescent control IMR90 ER:RAS cells
Experiment: Nuclei count (Hoechst, high content imaging) senolytic assay, OIS model, non-senescent control cells
Assay type: cell-based, human
Conditions: Homo sapiens; for viability at 2.188 µM: log (dose) [M] -5.66, 72 h; for viability at 2.19 µM: log (dose) [M] -5.66
How it was run: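 Cells seeded, left 24 h, then dosed across a 10-point […] series (10 μM down to 10 nM) with DMSO control. After 72 h, wells were fixed, permeabilised and stained with Hoechst. Nuclei were counted by high-content imaging in senescent and non-senescent IMR90 ER:RAS cultures.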

[1] = IMR-90, 72 h, Control, log (dose) [M] -5, 72 h, mean n=3 (Fig 3C), read-out: Mean % Cell Survival
[2] = IMR-90, 72 h, Control, log (dose) [M] -5.33, 72 h, mean n=3 (Fig 3C), read-out: Mean % Cell Survival
[3] = IMR-90, 72 h, Control, mean n=3 (Fig 3C), read-out: Mean % Cell Survival
[4] = IMR-90, 72 h, Control, log (dose) [M] -6, 72 h, mean n=3 (Fig 3C), read-out: Mean % Cell Survival
[5] = IMR-90, 72 h, Control, log (dose) [M] -6.33, 72 h, mean n=3 (Fig 3C), read-out: Mean % Cell Survival
[6] = IMR-90, 72 h, Control, log (dose) [M] -6.66, 72 h, mean n=3 (Fig 3C), read-out: Mean % Cell Survival
[7] = IMR-90, 72 h, Control, log (dose) [M] -7, 72 h, mean n=3 (Fig 3C), read-out: Mean % Cell Survival
[8] = IMR-90, 72 h, Control, log (dose) [M] -7.33, 72 h, mean n=3 (Fig 3C), read-out: Mean % Cell Survival
[9] = IMR-90, 72 h, Control, log (dose) [M] -7.66, 72 h, mean n=3 (Fig 3C), read-out: Mean % Cell Survival
[10] = IMR-90, 72 h, Control, log (dose) [M] -8, 72 h, mean n=3 (Fig 3C), read-out: Mean % Cell Survival
[11] = IMR-90, Control cells, log (dose) [M] -7.33, individual replicates, SUP FIG 4C, read-out: % Cell Survival
[12] = IMR-90, Control cells, log (dose) [M] -8, individual replicates, SUP FIG 4C, read-out: % Cell Survival
[13] = IMR-90, Control, log (dose) [M] -5, read-out: % Cell Survival
[14] = IMR-90, Control, log (dose) [M] -5.33, read-out: % Cell Survival
[15] = IMR-90, Control, read-out: % Cell Survival
[16] = IMR-90, Control, log (dose) [M] -6, read-out: % Cell Survival
[17] = IMR-90, Control, log (dose) [M] -6.33, read-out: % Cell Survival
[18] = IMR-90, Control, log (dose) [M] -6.66, read-out: % Cell Survival
[19] = IMR-90, Control, log (dose) [M] -7, read-out: % Cell Survival
[20] = IMR-90, Control, log (dose) [M] -7.33, read-out: % Cell Survival
[21] = IMR-90, Control, log (dose) [M] -8, read-out: % Cell Survival

Structure (SMILES): Cc1cnc(C(=O)N[C@H]2CCCCC/C=C\[C@@H]3C[C@@]3(C(=O)NS(=O)(=O)C3CC3)NC(=O)[C@@H]3C[C@@H](Oc4nc5ccccc5c5ccccc45)CN3C2=O)cn1 [Paritaprevir, paritaprevir, reference compound]
- viability at 10 µM [1]: 95%
- viability at 4.677 µM [2]: 90.1%
- viability at 2.188 µM [3]: 102%
- viability at 1 µM [4]: 78.8%
- viability at 0.4677 µM [5]: 87.9%
- viability at 0.2188 µM [6]: 82.7%
- viability at 0.1 µM [7]: 81.5%
- viability at 0.04677 µM [8]: 87.1%
- viability at 0.02188 µM [9]: 88.3%
- viability at 0.01 µM [10]: 101%
- viability at 10 µM (IMR-90, Control cells, log (dose) [M] -5, individual replicates, SUP FIG 4C, read-out: % Cell Survival): 93.1%
- viability at 4.677 µM (IMR-90, Control cells, log (dose) [M] -5.33, individual replicates, SUP FIG 4C, read-out: % Cell Survival): 86.6%
- viability at 0.4677 µM (IMR-90, Control cells, log (dose) [M] -6.33, individual replicates, SUP FIG 4C, read-out: % Cell Survival): 89.5%
- viability at 0.2188 µM (IMR-90, Control cells, log (dose) [M] -6.66, individual replicates, SUP FIG 4C, read-out: % Cell Survival): 83.1%
- viability at 0.1 µM (IMR-90, Control cells, log (dose) [M] -7, individual replicates, SUP FIG 4C, read-out: % Cell Survival): 73.5%
- viability at 0.04677 µM [11]: 83%
- viability at 0.02188 µM (IMR-90, Control cells, log (dose) [M] -7.66, individual replicates, SUP FIG 4C, read-out: % Cell Survival): 88%
- viability at 0.01 µM [12]: 102%
- viability at 10 µM [13]: 96%
- viability at 4.68 µM [14]: 96.2%
- viability at 2.19 µM [15]: 99.1%
- viability at 1 µM [16]: 96.6%
- viability at 0.468 µM [17]: 97.8%
- viability at 0.219 µM [18]: 99.6%
- viability at 0.1 µM [19]: 94.1%
- viability at 0.04677 µM [20]: 94.2%
- viability at 0.0219 µM (IMR-90, Control, log (dose) [M] -7.66, read-out: % Cell Survival): 97%
- viability at 0.01 µM [21]: 101%

Structure (SMILES): CC[C@]1(O)C[C@@H]2CN(CCc3c([nH]c4ccccc34)[C@@](C(=O)OC)(c3cc4c(cc3OC)N(C)[C@H]3[C@@](O)(C(=O)OC)[C@H](OC(C)=O)[C@]5(CC)C=CCN6CC[C@]43[C@@H]65)C2)C1 [Vinblastine sulfate, vinblastine sulfate, reference compound]
- viability at 10 µM [1]: 51.7%
- viability at 4.677 µM [2]: 55.1%
- viability at 2.188 µM [3]: 57.9%
- viability at 1 µM [4]: 76.4%
- viability at 0.4677 µM [5]: 76.9%
- viability at 0.2188 µM [6]: 80.8%
- viability at 0.1 µM [7]: 104%
- viability at 0.04677 µM [8]: 112%
- viability at 0.02188 µM [9]: 104%
- viability at 0.01 µM [10]: 105%
- viability at 0.04677 µM [11]: 114%
- viability at 0.01 µM [12]: 102%
- viability at 10 µM [13]: 46.8%
- viability at 4.68 µM [14]: 42.3%
- viability at 2.19 µM [15]: 47.6%
- viability at 1 µM [16]: 41.3%
- viability at 0.468 µM [17]: 41.5%

Structure (SMILES): Cc1cc2c(C(C)C)c(O)c(O)c(C=O)c2c(O)c1-c1c(C)cc2c(C(C)C)c(O)c(O)c(C=O)c2c1O [Gossypol, gossypol]
- viability at 10 µM [1]: 86.7%
- viability at 4.677 µM [2]: 131%
- viability at 2.188 µM [3]: 118%
- viability at 1 µM [4]: 120%
- viability at 0.4677 µM [5]: 135%
- viability at 0.2188 µM [6]: 146%
- viability at 0.1 µM [7]: 126%
- viability at 0.04677 µM [8]: 143%
- viability at 0.02188 µM [9]: 121%
- viability at 0.01 µM [10]: 109%
- viability at 4.68 µM [14]: 113%
- viability at 2.19 µM [15]: 99.8%
- viability at 1 µM [16]: 101%
- viability at 0.219 µM [18]: 94.1%
- viability at 0.1 µM [19]: 94.9%
- viability at 0.04677 µM [20]: 101%
- viability at 0.01 µM [21]: 104%
